Data set [1] concerns the target T1, Prp8 intein (Cryptococcus gattii, UniProt E6R027). Description: Split GFP-Prp8i intein splicing assay. Format: biochemical. The conditions noted are these: split GFP-Prp8 intein splicing. How it is done:
Cloning, expression and purfication—The split GFP-Prp8i was constructed using a mega-PCR mutagenesis approach. […] After digestion with Dpn I restriction enzyme, the PCR product was transformed into DH5α Escherichia coli. Clones were verified by plasmid DNA sequencing. The expression, refolding and purification of the GFP-Prp8i fusion protein were carried out as described previously.
[…] Then 100 μl 2×TCEP was added to a final concentration of 20 μM. The reactions were incubated at 25° C. overnight. […] Two readings were taken, one prior to addition of TCEP (I0) and one after incubation overnight with TCEP (If). Fluorescence/luminescence differences (ΔFluorescence or ΔLuminescence) were defined as If−I0 for each well. […] DMF control served as 100% splicing activity.
(§1) Split GFP-Prp8 and CJGFP-Prp8 intein splicing assays—Using black and clear bottom 96-well plates, the DPNB-treated, -refolded and -concentrated GFP-Prp8 or CfGFP-Prp8 fusion protein (0.5 μM) was incubated with compounds or Dimethylsulfoxide (DMSO) solvent control for 30 min at 25° C. in a 100 μl intein splicing buffer (20 mM Bis-tris propane, 0.5 M NaCl, 0.5 M arginine, 1 mM EDTA, and 0.05% CHAPS). Then 100 μl 2×TCEP was added to a final concentration of 20 μM. The reactions were incubated at 25° C. overnight. […] Two readings were taken, one prior to addition of TCEP (I0) and one after incubation overnight with TCEP (If). Fluorescence/luminescence differences (ΔFluorescence or ΔLuminescence) were defined as If−I0 for each well. […] DMSO control served as 100% splicing activity.

In data set [2] the target is T1, Prp8 intein. Description: Split Renilla luciferase RLuc-Prp8 intein splicing assay. Particulars: split Renilla luciferase RLuc-Prp8 intein splicing. The class given is biochemical. Here is the method: Split luciferase Prp8 intein splicing assay—The split RLuc-Prp8 fusion protein was carried out and monitored using a Veritas luminometer, as described previously.
(§2) Split luciferase RLuc-Prp8 and NnLuc-Prp8 intein splicing assays—The split RLuc-Prp8 intein splicing assay was carried out and monitored using a Veritas luminometer, as described previously. […] Microbes. Infect. […] For NnLuc-Prp8 intein splicing assay, the NnLuc-prp8 is diluted in assay buffer (50 mM Tris, 0.1% BSA, 1 mM EDTA, pH 7.4) and 50 ul is added to each well in 96 well black plates. Test molecules or the solvent was added and incubated for 30 to 60 min. A splicing inducer TCEP (50 ul, 100 μM) is added and incubated for 24 h. Luciferase substrate (Furimazine, 25 ul 1:10,000 diluted) is added and luminescence is read using a luminescence reader. IC50 is calculated using Graphpad prism.

Data set [3] in a line: in vitro. Format: cell-based, human. The conditions noted are these: human, CC50 A549. How it is done:
Cytotoxicity—Cytotoxicity assays were carried out using human lung carcinoma cell line A549, as described (Chen et al., “Selective Inhibition of the West Nile Virus Methyltransferase by Nucleoside Analogs,” Antiviral Research 97(3):232-239 (2013), which is hereby incorporated by reference in its entirety). Briefly, the A549 cells (5×10^3) were incubated with/without compounds in a 96-well plate at 37° C. for 48 h. Cell viability was determined using the MTT assay (ATCC) as was described previously (Chen et al., “Selective Inhibition of the West Nile Virus Methyltransferase by Nucleoside Analogs,” Antiviral Research 97(3):232-239 (2013) and Brecher et al., “Identification and Characterization of Novel Broad-Spectrum Inhibitors of the Flavivirus Methyltransferase,” ACS Infectious Diseases 1(8):340-349 (2015), both of which are hereby incorporated by reference in their entirety). N=3.
Cytotoxicity—Cytotoxicity assays were carried out using human lung carcinoma cell line A549, as described. Chen et al., “Selective Inhibition of the West Nile Virus Methyltransferase by Nucleoside Analogs,” Antiviral Res. 97:232-9 (2013), which is hereby incorporated by reference in its entirety. Briefly, the A549 cells (5×10^3) were incubated with/without compounds in a 96-well plate at 37° C. for 48 h. Cell viability was determined using the MTT assay (ATCC) as was described previously (Chen et al., “Selective Inhibition of the West Nile Virus Methyltransferase by Nucleoside Analogs,” Antiviral Research 97(3):232-239 (2013) and Brecher et al., “Identification and Characterization of Novel Broad-Spectrum Inhibitors of the Flavivirus Methyltransferase,” ACS Infectious Diseases 1(8):340-349 (2015), both of which are hereby incorporated by reference in their entirety). N=3.

Data set [4] concerns C. neoformans H99 strain. Description: Fungal susceptibility test, broth microdilution MIC. Format: cell-based, Cryptococcus neoformans. The conditions noted are these: Cryptococcus neoformans, H99STRAIN; C. neoformans H99, microbroth dilution; read-out: MIC H99. How it is done:
Fungal susceptibility test—The fungal susceptibility test was carried out with a compound concentration series as described. […] The broth microdilution method was used to determine the compound MIC values against C. neoformans.
Fungal susceptibility test—The fungal susceptibility test was carried out with a compound concentration series as described. […] Microbes. Infect. […] The broth microdilution method was used to determine the compound MIC values against C. neoformans.
(In broth dilution the organism is exposed to a series of concentrations in liquid medium.)

Data set [5] has as its target T1, Prp8 intein. Nature of the data set: Split Cys-free (Cf) GFP-Prp8 intein splicing assay. The class given is biochemical. The conditions noted are these: read-out: IC50 CfGFP-Prp8 (converted). Here is the method:
(§3) The constructs for Cys-free (Cf) GFP-Prp8 and Cys-free nanoluciferase NnLuc-Prp8 were codon-optimized, synthesized, and cloned into the pET28a vector using the NcoI and XhoI sites by Gene Universal (Gene Universal, Newark Del.). […] The expression, refolding and purification of the CfGFP-Prp8 and NnLuc-Prp8 fusion proteins were carried out as described previously. […] Microbes. Infect.
as §1

The target of data set [6] is T1, Prp8 intein. Nature of the data set: Split nanoluciferase NnLuc-Prp8 intein splicing assay. The class given is biochemical. How it is done:
as §3, §2

≈ marks a conversion by molar mass, not a printed value.

T1 sequence (E6R027 entry or part of it): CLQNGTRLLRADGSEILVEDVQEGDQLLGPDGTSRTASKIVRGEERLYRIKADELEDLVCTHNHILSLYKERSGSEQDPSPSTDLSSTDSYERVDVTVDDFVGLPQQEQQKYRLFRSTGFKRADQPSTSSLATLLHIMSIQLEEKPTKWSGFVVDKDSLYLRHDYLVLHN

By IC50 is commonly meant the midpoint of a concentration-inhibition curve. One may read the CC50 as the concentration that lowers cell viability or growth by half. In general, MIC refers to the smallest concentration in the dilution series that meets the test's criterion for growth inhibition. Take `O=C(Nc1ccc(F)cc1F)c1ncsc1S(=O)(=O)c1ccc(Cl)cc1` [JMX0515, 5-((4-Chlorophenyl)sulfonyl)-N-(2,4-difluorophenyl)thiazole-4-carboxamide]: the IC50 in data set [1] is above 50 µM; in data set [2], 37.7 µM. This compound showed a CC50 at 48 h in data set [3] of 210 µM. Besides, the minimum inhibitory concentration (MIC) in data set [4] was above 100 µM.

On to `O=C(Nc1ccccc1F)c1ncsc1S(=O)(=O)c1ccc(Cl)cc1` [JMX0516, 5-((4-Chlorophenyl)sulfonyl)-N-(2-fluorophenyl)thiazole-4-carboxamide], for which the IC50 in data set [1] was 49.3 µM; in data set [2] it was 13.3 µM. The CC50 at 48 h in data set [3] stood at 144 µM. In addition, the MIC in data set [4] was above 100 µM.

Turning to `O=C(Nc1cccc(F)c1)c1ncsc1S(=O)(=O)c1ccc(Cl)cc1` [JMX0517, 5-((4-Chlorophenyl)sulfonyl)-N-(3-fluorophenyl)thiazole-4-carboxamide], the IC50 in data set [1] was above 50 µM; in data set [2], 28.4 µM. The compound further returned a CC50 at 48 h in data set [3] of 161 µM. For the same compound, the MIC in data set [4] was above 100 µM.

For `O=C(Nc1ccc(Cl)cc1)c1ncsc1S(=O)(=O)c1ccc(Cl)cc1` [JMX0518, N-(4-Chlorophenyl)-5-((4-chlorophenyl)sulfonyl)thiazole-4-carboxamide], the IC50 in data set [1] worked out at 28 µM; in data set [2] it was 6.5 µM. It took 57.3 µM to reach half-maximal cytotoxicity in data set [3] (CC50 at 48 h). In addition, the MIC in data set [4] is 50 µM (≈ 20.7 µg/mL).

For the compound `O=C(Nc1ccc(Cl)cc1Cl)c1ncsc1S(=O)(=O)c1ccc(Cl)cc1` [JMX0519, 5-((4-Chlorophenyl)sulfonyl)-N-(2,4-dichlorophenyl)thiazole-4-carboxamide], the IC50 in data set [1] worked out at 50 µM; in data set [2] it was 11.7 µM. Moreover, the CC50 at 48 h in data set [3] turned out to be 245 µM. Also, in data set [4], the MIC was above 100 µM.

Take `O=C(Nc1ccc(F)c(F)c1)c1ncsc1S(=O)(=O)c1ccc(Cl)cc1` [JMX0520, 5-((4-Chlorophenyl)sulfonyl)-N-(3,4-difluorophenyl)thiazole-4-carboxamide]: the figures for the 50% inhibitory concentration (IC50) in data set [1] and in data set [2] were above 50 µM and 27.5 µM, respectively. Further, the CC50 at 48 h in data set [3] is 81.6 µM. In data set [4], the MIC is above 100 µM.

As for `O=C(Nc1ccc(C(F)(F)F)cc1)c1ncsc1S(=O)(=O)c1ccc(Cl)cc1` [JMX0521, 5-((4-Chlorophenyl)sulfonyl)-N-(4-(trifluoromethyl)phenyl)thiazole-4-carboxamide], the figures for the IC50 in data set [1] and in data set [2] were 50 µM and 29.3 µM, respectively. In addition, in data set [3], half-maximal cytotoxicity (CC50 at 48 h) was put at 54.1 µM. Further, the MIC in data set [4] is above 100 µM.

Take `O=C(Nc1ccc(F)cc1)c1nnsc1S(=O)(=O)c1ccc(Cl)cc1Cl` [JMX1059, 5-((2,4-Dichlorophenyl)sulfonyl)-N-(4-fluorophenyl)-1,2,3-thiadiazole-4-carboxamide]: the results for the IC50 in data set [5] and in data set [6] were 31.9 µM and 20.9 µM, respectively. The CC50 at 48 h in data set [3] was 68.1 µM. The MIC in data set [4] was 12.5 µM (≈ 5.4 µg/mL).

As to `O=C(Nc1ccc(F)cc1)c1nnsc1S(=O)(=O)c1ccc(F)c(F)c1` [JMX1060, 5-((3,4-Difluorophenyl)sulfonyl)-N-(4-fluorophenyl)-1,2,3-thiadiazole-4-carboxamide], the figures for the IC50 in data set [5] and in data set [6] were 32.8 µM and 23.5 µM, respectively. In addition, the midpoint of cytotoxicity in data set [3], the CC50 at 48 h, lay at 61.1 µM. For the same compound, the MIC in data set [4] was 50 µM (≈ 20 µg/mL).

For the compound `O=C(Nc1ccc(F)cc1)c1nnsc1S(=O)(=O)c1ccc(F)cc1` [JMX1061, N-(4-Fluorophenyl)-5-((4-fluorophenyl)sulfonyl)-1,2,3-thiadiazole-4-carboxamide], the IC50 in data set [5] is 51.3 µM; in data set [6] it was 23.7 µM. Also, in data set [3], the CC50 at 48 h was found to be 71.7 µM. In addition, the MIC in data set [4] is above 50 µM.

`O=C(Nc1ccc(F)cc1)c1nnsc1S(=O)(=O)c1ccc(F)cc1F` [JMX1062, 5-((2,4-Difluorophenyl)sulfonyl)-N-(4-fluorophenyl)-1,2,3-thiadiazole-4-carboxamide]: the IC50 in data set [5] is 38.2 µM; in data set [6], 21.7 µM. The compound further gave a CC50 at 48 h in data set [3] of 65.4 µM. Also, in data set [4], the MIC is above 50 µM.

With `O=C(Nc1ccc(F)cc1)c1nnsc1S(=O)(=O)c1cccc(C(F)(F)F)c1` [JMX1063, N-(4-Fluorophenyl)-5-((3-(trifluoromethyl)phenyl)sulfonyl)-1,2,3-thiadiazole-4-carboxamide], the IC50 in data set [5] was 35 µM; in data set [6], 28.2 µM. In addition, in data set [3], the CC50 at 48 h came to 137 µM. For the same compound, in data set [4], the MIC amounted to 6.25 µM (≈ 2.7 µg/mL).

With `O=C(Nc1ccc(F)cc1)c1nnsc1[S+]([O-])c1cccc(C(F)(F)F)c1` (stereo not shown) [JMX1063-2, N-(4-Fluorophenyl)-5-((3-(trifluoromethyl)phenyl)sulfinyl)-1,2,3-thiadiazole-4-carboxamide], the IC50 was 29.2 µM in data set [5] and 12.4 µM in data set [6]. Besides, the midpoint of cytotoxicity in data set [3], the CC50 at 48 h, lay at 93.8 µM. Also, the MIC in data set [4] was 6.25 µM (≈ 2.6 µg/mL).

Regarding `O=C(Nc1ccc(F)cc1)c1nnsc1S(=O)(=O)c1ccc(Cl)c(Cl)c1` [JMX1064, 5-((3,4-Dichlorophenyl)sulfonyl)-N-(4-fluorophenyl)-1,2,3-thiadiazole-4-carboxamide], the half-inhibitory concentration (IC50) in data set [5] was 32.6 µM; in data set [6], 26 µM. In data set [3], this compound registered a CC50 at 48 h of 78.4 µM. The MIC in data set [4] was determined as 1.56 µM (≈ 0.674 µg/mL).

As to `O=C(Nc1ccc(F)cc1)c1nnsc1[S+]([O-])c1ccc(Cl)c(Cl)c1` (stereo not shown) [JMX1064-2, 5-((3,4-Dichlorophenyl)sulfinyl)-N-(4-fluorophenyl)-1,2,3-thiadiazole-4-carboxamide], the IC50 is 19.8 µM in data set [5] and 35 µM in data set [6]. For the same compound, the CC50 at 48 h in data set [3] amounted to 122 µM. For the same compound, the MIC in data set [4] was above 50 µM.

Regarding `O=C(Nc1cccc(F)c1)c1nnsc1S(=O)(=O)c1ccc(Cl)cc1` [JMX 871, 5-((4-Chlorophenyl)sulfonyl)-N-(3-fluorophenyl)-1,2,3-thiadiazole-4-carboxamide], the IC50 is 35.4 µM in data set [5] and 27.1 µM in data set [6]. This compound also returned a CC50 at 48 h in data set [3] of 140 µM. Also, the MIC in data set [4] came out at 3.12 µM (≈ 1.24 µg/mL).

Values taken from patent US20230233533A1, “COMPOSITIONS, METHODS OF TREATING AND PREVENTING FUNGAL INFECTIONS, AND METHODS OF INHIBITING PRP8 INTEIN EXPRESSION” (Health Research, Inc., priority 2020, published 2023).
